The values below come from PubChem BioAssay (NCI).

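The compound was tested at five concentrations on cells cultured in 96-well plates, with a 48-hour exposure period. TGI is the concentration that stops growth completely.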

Test systems include SK-MEL-2 melanoma; RPMI-8226 leukemia; OVCAR-4 ovarian; SK-OV-3 ovarian; RXF 393 renal; SF-295 CNS; NCI-H522 lung; LOX IMVI melanoma; HS 578T breast; HL-60(TB) leukemia; SR leukemia; UACC-62 melanoma; NCI-H226 lung; T-47D breast; A549 NSCLC; PC-3 prostate; SW-620 colon; MDA-MB-231 breast; UACC-257 melanoma; MOLT-4 leukemia.
Holding throughout (assay): inhibition of tumour cell growth, NCI panel, 48 h

`COc1cc2c(c(OC)c1OC)C(=O)[C@H](Br)[C@H]2NC(=O)NCCCl`: the TGI with SK-MEL-2 melanoma, in the test on RPMI-8226 leukemia, with OVCAR-4 ovarian, with SK-OV-3 ovarian, with RXF 393 renal and in the test with SF-295 CNS was more than 100 µM throughout. For the same compound, the TGI with NCI-H522 lung, in the test on LOX IMVI melanoma, with HS 578T breast, in the test with HL-60(TB) leukemia, with SR leukemia and in the test on UACC-62 melanoma was more than 100 µM each time. For the same compound, the TGI with NCI-H226 lung, with T-47D breast, with A549 NSCLC, in the test with PC-3 prostate, in the test on SW-620 colon and in the test with MDA-MB-231 breast was more than 100 µM each time. In addition, the TGI with UACC-257 melanoma and in the test with MOLT-4 leukemia was more than 100 µM in each case.
`CCOC(=O)CCC(NC(=O)c1ccc(Nc2cnc3ccc(C(F)(F)F)cc3n2)cc1)C(=O)OCC` (stereo not given): the TGI with SK-MEL-2 melanoma was more than 100 µM; in the test with RPMI-8226 leukemia it was more than 100 µM; in the test on OVCAR-4 ovarian it was more than 74.3 µM; in the test on SK-OV-3 ovarian it was more than 60.5 µM; with RXF 393 renal, more than 90.2 µM; with SF-295 CNS, more than 100 µM. Also, the TGI in the test with NCI-H522 lung is more than 100 µM; with LOX IMVI melanoma, more than 100 µM; with HS 578T breast, more than 65.9 µM; in the test with HL-60(TB) leukemia, more than 100 µM; in the test on SR leukemia it was more than 100 µM; with UACC-62 melanoma it was more than 77.5 µM. The TGI is more than 100 µM in the test on NCI-H226 lung; more than 100 µM with T-47D breast; more than 100 µM in the test on A549 NSCLC; more than 100 µM in the test with PC-3 prostate; more than 100 µM in the test with SW-620 colon; 25.2 µM in the test with MDA-MB-231 breast. For the same compound, the TGI in the test on UACC-257 melanoma and in the test on MOLT-4 leukemia was more than 100 µM each time.
Regarding `CN(C)CC1(Cc2ccccc2)CCC(Cc2ccccc2)C1=O` (stereo not given), the TGI worked out at 27.3 µM in the test on SK-MEL-2 melanoma; 6.84 µM in the test on RPMI-8226 leukemia; 31 µM with OVCAR-4 ovarian; 36.4 µM in the test with SK-OV-3 ovarian; 27.5 µM in the test on RXF 393 renal; 31.2 µM with SF-295 CNS. Also, the TGI with NCI-H522 lung worked out at 7.59 µM; in the test on LOX IMVI melanoma, 15.7 µM; with HS 578T breast, 48.9 µM; with HL-60(TB) leukemia, 12.5 µM; in the test on SR leukemia it was 33.3 µM; in the test on UACC-62 melanoma, 32.5 µM. Moreover, the TGI with NCI-H226 lung was 37.9 µM; in the test on T-47D breast it was 51.5 µM; in the test with A549 NSCLC it was 33.5 µM; in the test on PC-3 prostate, 22.9 µM; with SW-620 colon, 11.1 µM; with MDA-MB-231 breast, 24.3 µM. Besides, the TGI in the test with UACC-257 melanoma turned out to be 29.1 µM; in the test with MOLT-4 leukemia it was 9.11 µM.
As for `O=C1CCCCCC1CC(Sc1ccccc1)Sc1ccccc1` (stereo not given), the TGI in the test on SK-MEL-2 melanoma, in the test with RPMI-8226 leukemia, in the test with OVCAR-4 ovarian, in the test on SK-OV-3 ovarian, with RXF 393 renal and in the test on SF-295 CNS was more than 100 µM throughout. The TGI with NCI-H522 lung is more than 100 µM; with LOX IMVI melanoma, more than 100 µM; with HS 578T breast, more than 100 µM; in the test with HL-60(TB) leukemia it was 52.7 µM; with SR leukemia it was more than 100 µM; in the test on UACC-62 melanoma it was more than 100 µM. For the same compound, the TGI with NCI-H226 lung, in the test with T-47D breast, in the test on A549 NSCLC, with PC-3 prostate, in the test on SW-620 colon and in the test with MDA-MB-231 breast was more than 100 µM throughout. Moreover, the figures for the TGI in the test on UACC-257 melanoma and in the test with MOLT-4 leukemia were more than 100 µM and 47.3 µM, respectively.
Regarding `CN(C)CCc1ccnc2nc(-c3ccc4ccccc4c3)cn12`, the TGI in the test with SK-MEL-2 melanoma, in the test on RPMI-8226 leukemia, in the test on OVCAR-4 ovarian, in the test on SK-OV-3 ovarian, in the test with RXF 393 renal and in the test with SF-295 CNS was more than 100 µM in each case. The TGI in the test with NCI-H522 lung was 24.8 µM; in the test with LOX IMVI melanoma it was 65 µM; in the test on HS 578T breast it was 52.8 µM; with HL-60(TB) leukemia, more than 100 µM; in the test on SR leukemia, more than 100 µM; in the test with UACC-62 melanoma, more than 100 µM. Moreover, the TGI is more than 100 µM in the test with NCI-H226 lung; more than 100 µM with T-47D breast; more than 100 µM in the test with A549 NSCLC; more than 100 µM with PC-3 prostate; 47.7 µM with SW-620 colon; more than 100 µM in the test on MDA-MB-231 breast. Moreover, the TGI with UACC-257 melanoma and in the test on MOLT-4 leukemia was more than 100 µM in each case.
Consider `Cc1cc(=O)oc2c(C)c3oc(CBr)c(Br)c3cc12`, for which the TGI in the test on SK-MEL-2 melanoma is more than 100 µM; in the test with RPMI-8226 leukemia, 64.6 µM; in the test with OVCAR-4 ovarian it was 88.1 µM; in the test with SK-OV-3 ovarian it was more than 100 µM; with RXF 393 renal, 41.6 µM; in the test with SF-295 CNS it was 42.5 µM. In addition, the TGI was 30.2 µM in the test on NCI-H522 lung; 28.8 µM in the test on LOX IMVI melanoma; more than 100 µM in the test with HS 578T breast; more than 100 µM in the test on HL-60(TB) leukemia; 98.5 µM in the test on SR leukemia; 37.6 µM with UACC-62 melanoma. Further, the TGI in the test on NCI-H226 lung was more than 100 µM; in the test with T-47D breast, 72.6 µM; in the test on A549 NSCLC, 37.2 µM; with PC-3 prostate it was more than 100 µM; with SW-620 colon it was 52.1 µM; with MDA-MB-231 breast, more than 100 µM. The TGI in the test on UACC-257 melanoma and in the test with MOLT-4 leukemia was more than 100 µM throughout.
On to `Clc1ccc(C=NC23CC4CC(CC(C4)C2)C3)cc1Cl`, for which the TGI with SK-MEL-2 melanoma, in the test with RPMI-8226 leukemia, with OVCAR-4 ovarian, in the test on SK-OV-3 ovarian, with RXF 393 renal and in the test on SF-295 CNS was more than 10 µM each time. Besides, the TGI with NCI-H522 lung, with LOX IMVI melanoma, in the test on HS 578T breast, in the test with HL-60(TB) leukemia, in the test with SR leukemia and in the test with UACC-62 melanoma was more than 10 µM throughout. The TGI in the test on NCI-H226 lung, in the test with T-47D breast, in the test with A549 NSCLC, with PC-3 prostate, in the test with SW-620 colon and in the test on MDA-MB-231 breast was more than 10 µM in each case. For the same compound, the TGI in the test on UACC-257 melanoma and in the test on MOLT-4 leukemia was more than 10 µM each time.
As for `O=S(=O)(O)c1cc(N=Nc2cc(S(=O)(=O)O)c3cccnc3c2O)ccc1/C=C/c1ccc(N=Nc2cc(S(=O)(=O)O)c3cccnc3c2O)cc1S(=O)(=O)O`, the TGI in the test on SK-MEL-2 melanoma was more than 100 µM; in the test on RPMI-8226 leukemia, more than 100 µM; in the test with OVCAR-4 ovarian, more than 100 µM; in the test on SK-OV-3 ovarian it was more than 100 µM; with RXF 393 renal, more than 31.6 µM; in the test on SF-295 CNS, more than 100 µM. The TGI with NCI-H522 lung is more than 100 µM; in the test with LOX IMVI melanoma, more than 100 µM; in the test on HS 578T breast, more than 100 µM; with HL-60(TB) leukemia, 56.5 µM; in the test with SR leukemia it was 51.1 µM; in the test with UACC-62 melanoma, more than 100 µM. The TGI with NCI-H226 lung, in the test with T-47D breast, in the test on A549 NSCLC, with PC-3 prostate, in the test with SW-620 colon and with MDA-MB-231 breast was more than 100 µM in each case. Besides, the TGI was more than 100 µM with UACC-257 melanoma and 48.3 µM with MOLT-4 leukemia.
For the compound `C#C[C@]1(O)CC[C@H]2[C@@H]3CCC4=C/C(=N\OCCN(CC)CC)CC[C@]4(C)[C@H]3CC[C@@]21C`, the TGI amounted to 11.3 µM in the test with SK-MEL-2 melanoma; 5.83 µM in the test on RPMI-8226 leukemia; 50.4 µM in the test with OVCAR-4 ovarian; 34.4 µM in the test with SK-OV-3 ovarian; 7.35 µM with RXF 393 renal; 5.21 µM with SF-295 CNS. Further, the TGI was 5.76 µM with NCI-H522 lung; 13.1 µM with LOX IMVI melanoma; 7.51 µM with HS 578T breast; 3.42 µM with HL-60(TB) leukemia; more than 31.3 µM with SR leukemia; 11.3 µM with UACC-62 melanoma. Moreover, the TGI in the test on NCI-H226 lung is 29.8 µM; in the test with T-47D breast it was 40.9 µM; in the test with A549 NSCLC, more than 41.4 µM; in the test on PC-3 prostate it was 16.1 µM; in the test with SW-620 colon, more than 29.1 µM; in the test on MDA-MB-231 breast, 35.2 µM. Further, the TGI in the test with UACC-257 melanoma was determined as 16.9 µM; in the test with MOLT-4 leukemia, 1.04 µM.
